The target of the experiment is T1, panel of 442 kinases (Homo sapiens, UniProt Q99683).
T1 construct: purchased KINOMEscan
T1 sequence (Q99683 1-1374): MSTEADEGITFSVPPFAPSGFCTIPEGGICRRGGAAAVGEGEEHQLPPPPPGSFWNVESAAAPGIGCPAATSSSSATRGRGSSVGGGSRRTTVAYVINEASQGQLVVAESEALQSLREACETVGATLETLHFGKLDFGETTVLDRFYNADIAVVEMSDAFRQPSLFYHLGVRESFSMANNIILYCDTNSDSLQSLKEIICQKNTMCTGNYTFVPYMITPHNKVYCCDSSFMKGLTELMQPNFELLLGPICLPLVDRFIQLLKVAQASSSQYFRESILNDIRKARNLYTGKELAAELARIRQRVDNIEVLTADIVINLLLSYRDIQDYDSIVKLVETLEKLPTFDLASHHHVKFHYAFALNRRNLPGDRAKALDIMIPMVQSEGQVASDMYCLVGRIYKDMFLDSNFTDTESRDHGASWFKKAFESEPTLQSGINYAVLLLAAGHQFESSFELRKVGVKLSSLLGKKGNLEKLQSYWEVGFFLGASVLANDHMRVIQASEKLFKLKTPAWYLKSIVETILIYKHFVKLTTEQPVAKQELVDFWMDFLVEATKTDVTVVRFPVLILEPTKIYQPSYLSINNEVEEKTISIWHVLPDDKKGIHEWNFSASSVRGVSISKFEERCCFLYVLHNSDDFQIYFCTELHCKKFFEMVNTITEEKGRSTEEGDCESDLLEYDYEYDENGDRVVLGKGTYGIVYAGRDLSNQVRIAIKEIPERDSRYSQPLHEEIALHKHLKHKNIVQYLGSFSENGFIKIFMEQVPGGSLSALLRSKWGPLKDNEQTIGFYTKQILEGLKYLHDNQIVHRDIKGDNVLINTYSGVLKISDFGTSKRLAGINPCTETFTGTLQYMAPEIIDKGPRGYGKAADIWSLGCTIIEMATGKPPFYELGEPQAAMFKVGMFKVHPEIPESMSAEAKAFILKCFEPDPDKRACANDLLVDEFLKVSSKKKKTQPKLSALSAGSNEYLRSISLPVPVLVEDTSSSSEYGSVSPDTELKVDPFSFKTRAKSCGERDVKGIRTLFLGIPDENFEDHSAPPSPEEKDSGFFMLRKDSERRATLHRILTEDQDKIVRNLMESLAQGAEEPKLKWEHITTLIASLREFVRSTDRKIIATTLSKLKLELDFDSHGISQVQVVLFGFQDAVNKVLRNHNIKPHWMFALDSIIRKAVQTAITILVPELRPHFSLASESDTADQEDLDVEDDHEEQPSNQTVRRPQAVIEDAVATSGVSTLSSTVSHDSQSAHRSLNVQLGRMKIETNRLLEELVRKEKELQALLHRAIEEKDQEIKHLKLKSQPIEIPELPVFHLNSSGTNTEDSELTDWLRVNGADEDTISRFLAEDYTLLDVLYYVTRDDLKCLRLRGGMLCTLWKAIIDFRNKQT
Type of experiment: binding. Conditions: Compound Concentration 10 µM. An excerpt: We assessed the selectivity of members of this scaffold using the KINOMEscan methodology across a near comprehensive panel of 442 kinases [[18,27]].

Molecules are shown by their SMILES.

For `COc1cc(C(=O)N2CCC(N3CCN(C)CC3)CC2)ccc1Nc1ncc2c(n1)N(C)c1ccccc1C(=O)N2C` [15 (LRRK2-IN-1)], the “KINOMEscan: ASK1” value stood at 100.

As for `COc1cc(C(=O)N2CCC(N3CCN(C)CC3)CC2)ccc1Nc1ncc2c(n1)N(C1CCCC1)c1ccccc1C(=O)N2C` [Compound 25, 11-cyclopentyl-2-((2-methoxy-4-(4-(4-methylpiperazin-1-yl)piperidine-1-carbonyl)phenyl)amino)-5-methyl-5H-benzo[e]pyrimido[5,4-b][1,4]diazepin-6(11H)-one], the “KINOMEscan: ASK1” value is given as 100. Take `CCOc1cc(C(=O)N2CCC(N3CCN(C)CC3)CC2)ccc1Nc1ncc2c(n1)N(C1CCCC1)c1ccccc1C(=O)N2C` [Compound 26]: the “KINOMEscan: ASK1” value was determined as 100.
